Measurements taken from US20060247156A1, “Use of neuropeptides for ligament, cartilage, and bone healing” (priority 2004, published 2006).

Experiments:
[1] = tested on: sympathetic nervous system; settings: rat, in vivo
Method: For all groups, anesthesia (isofluorane 0.5-3%) was initiated in an induction chamber and maintained with a facemask. […] Both groups were survived for 10 days following implantation of the pump at which time the animals were euthanized with intraperitoneal injection of pentobarbitone. Throughout the study only one ligament per animal was used for a particular experimental test protocol (described below).
Statistical analysis was performed using an unpaired t-test (alpha=0.05) to compare differences between the control and treatment groups.

MCL = MCL organ culture with guanethidine, mechanical testing; settings: organ culture 10 days with guanethidine in media
Method: Bilateral MCLs (n=6) including intact femoral and tibial segments were aseptically harvested from untreated rats.
During and after harvest, tissues were rinsed in sterile phosphate buffered saline (PBS) containing penicillin (100 U/mL), streptomycin (100 μg/mL), and fungizone (0.25 μg/mL). Bone blocks were trimmed in order to minimize the amount of bone marrow, which may alter the culture environment. Tissues were then cultured in Dulbecco's Modified Eagle's Medium (DMEM) supplemented with 10% fetal bovine serum, nonessential amino acids (0.1 mM), L-gutamine (4 mM), penicillin (100 U/mL), streptomycin (100 μg/mL), and fungizone (0.25 μg/mL). […] The cultures were maintained in an incubator at 37° C. and 5% CO2. Media were changed every 48 hours at which time tissues were rinsed with sterile PBS to reduce drug carryover into the fresh media containing the treatment drug or equivalent volume of carrier. Organ culture was maintained for 10 days after which time the MCLs were tested mechanically in the same manner as the in vivo treatment group (described below).

intact MCL = settings: guanethidine 40 mg/kg/day, 10 days
Method: Ligament thickness and width was measured optically, and MCL area was estimated with elliptical geometry. […] For strain measurements, optical markers were placed onto the ligament tissue near the insertion sites. A small preload of 0.1N was applied to the ligaments in order to obtain a uniform starting point. The ligaments were then preconditioned to 1% strain for 10 cycles.
The mechanical properties that were examined in this study were maximum force, ultimate stress, strain at failure, elastic modulus, and area.

N=C(N)NCCN1CCCCCCC1 [guanethidine]
abnormalities in movement, body weight, or behavior [1]: No abnormalities
ultimate stress (MCL): 70.29±19.15 MPa
mean ultimate tensile force (intact MCL): not significantly decreased
strain at failure (intact MCL): 8.1±0.4%
wet weight (intact MCL; tissue hydration): 6.8 ± 0.7 g
